# Laboratory results taken from PMC8560763, “Roles of metal ions in the selective inhibition of oncogenic variants of isocitrate dehydrogenase 1” (Communications Biology, 2021).
# Where “and” joins values, the source holds several entries; their conditions need not be identical. Identical values can stand only once.
# Key:
# [1] = target: T1, wt IDH1 (Homo sapiens, UniProt O75874); experiment: Absorbance assay: kinetics of reductive reaction (2OG to isocitrate) by wt IDH1; assay type: biochemical; conditions: for Velocity: Fig. S2e
# T1 construct: made in house; host or cells: Escherichia coli BL21(DE3) pLyS
# T1 sequence (O75874 2-414): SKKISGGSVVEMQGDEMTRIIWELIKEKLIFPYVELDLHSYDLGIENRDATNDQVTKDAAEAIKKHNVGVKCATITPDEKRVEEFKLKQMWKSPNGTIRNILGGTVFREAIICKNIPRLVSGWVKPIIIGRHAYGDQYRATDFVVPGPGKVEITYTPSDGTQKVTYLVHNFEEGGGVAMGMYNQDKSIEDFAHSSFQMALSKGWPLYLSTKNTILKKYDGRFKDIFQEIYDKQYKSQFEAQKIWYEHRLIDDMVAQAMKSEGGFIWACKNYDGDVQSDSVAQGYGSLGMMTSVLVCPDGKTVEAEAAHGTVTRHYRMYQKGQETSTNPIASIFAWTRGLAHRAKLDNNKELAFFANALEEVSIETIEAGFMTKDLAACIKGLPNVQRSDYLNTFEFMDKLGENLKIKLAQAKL
# Experimental: All experiments were performed in (at least) triplicate.
# KM values were determined by varying concentrations of the substrate/cofactor under investigation while maintaining the concentrations of other components using standard conditions. […] Graphs were fitted using GraphPad Prism to obtain kinetic parameters.
# [2] = target: T1, wt IDH1; experiment: CPMG-edited 1H NMR ligand binding, wt IDH1; conditions: for weakening of D-isocitrate binding to wt IDH1: with Mg^2+ or Ca^2+ (10 mM); for displacement of D-isocitrate from wt IDH1: inhibitor 50 µM, D-isocitrate 50 µM, wt IDH1 6.25 µM
# Experimental: Additional solvent presaturation was applied for 2 s. The assay mixture contains 160 µL of a 50 µM solution of the compound of interest ± 10 mM metal chloride salts in 50 mM Tris-D11-HCl in 90% H2O/10% D2O at pH 7.5. […] Data were processed with the TopSpin 3.1 software.
# [3] = target: T1, wt IDH1; experiment: Non-denaturing protein MS, wt IDH1; assay type: binding; conditions: wt IDH1 dimer with two NADPHs bound
# Experimental: Non-denaturing mass spectra were obtained using a quadrupole time-of-flight mass spectrometer (Synapt HD MS, Waters, Wilmslow, Manchester, UK)[71],[72]. […] Protein concentrations were measured using a Nanodrop spectrometer (Thermo Scientific™ NanoDrop™ One). […] The solution was then sprayed through a nozzle in a Nanomate chip at a spray voltage of 1.8–2.0 kV (spray backing gas pressure 0.8–1.0 psi, inlet pressure 3.8 mbar). […] For promoting collision-induced dissociation of the substrate from its complex with IDH1, a higher cone voltage (200 V) was used. The rest of the voltages and pressures in the mass spectrometer were adjusted for the best resolution and minimum fragmentation. Data collection and analysis were carried out using the Waters MassLynx software. Mass spectra were calibrated externally using the CsI solution to produce CsI cluster ions.
# [4] = target: T1, wt IDH1; experiment: 1H NMR reaction monitoring, wt IDH1; assay type: biochemical; conditions: 1H NMR (700 MHz), NADP+, 10 mM MgCl2
# Experimental: Reaction monitoring employed the same spectrometer with a 5-mm inverse TCI cryoprobe using 5 mm tubes (Norell). Data were recorded with a relaxation delay of 2 s and 32 scans, employing a pulse sequence with water suppression (^1H excitation sculpting suppression with perfect echo using a 2 ms Sinc selective inversion pulse).
# [5] = wt IDH1, reductive reaction (2OG to isocitrate) with Mg^2+, 100 mM NaHCO3
smiles,measurement,setting,value
"O=C(O)CCC(=O)C(=O)O [2OG, 2-oxoglutarate]",Velocity,[1]; [2OG] 312.5 μM,0.04369 µM/s and 0.04159 µM/s and 0.04334 µM/s
same,Velocity,[1]; [2OG] 625 μM,0.08493 µM/s and 0.08598 µM/s and 0.07405 µM/s
same,Velocity,[1]; [2OG] 2500 μM,0.1446 µM/s and 0.1407 µM/s and 0.1265 µM/s
same,Velocity,[1]; [2OG] 5000 μM,0.1734 µM/s and 0.1435 µM/s and 0.1563 µM/s
same,Velocity,[1]; [2OG] 10000 μM,0.2051 µM/s and 0.2078 µM/s and 0.1434 µM/s
same,Km,[1]; [5],1100 µM
same,Vmax,[1]; [5],200 ± 16 nM/s
same,binding to wt IDH1,"[2]; without metal ions, DSF and NMR",bind weakly
"N#Cc1ccnc(N2C(=O)CC[C@H]2C(=O)N(c2cncc(F)c2)[C@H](C(=O)NC2CC(F)(F)C2)c2ccccc2Cl)c1 [AG-120, Ivosidenib]",binding stoichiometry,[3],one inhibitor per IDH1 dimer
same,weakening of D-isocitrate binding to wt IDH1,[2],not
same,displacement of D-isocitrate from wt IDH1,[2]; without metal ions,partially displaced
COc1c(C)cc(NC(=O)c2nn(Cc3ccc(F)cc3)c3c2CN(C(=O)c2ccc[nH]2)C[C@]3(C)C(N)=O)cc1C [GSK864],binding stoichiometry,[3],two inhibitors per IDH1 dimer
same,weakening of D-isocitrate binding to wt IDH1,[2],not
same,displacement of D-isocitrate from wt IDH1,[2]; without metal ions,partially displaced
O=C(O)C[C@H](C(=O)O)[C@@H](O)C(=O)O [L-isocitrate],conversion by wt IDH1,[4],neither a substrate nor an inhibitor
